Assay results published in ChEMBL document CHEMBL5625175, “Quinazoline-based VEGFR-2 inhibitors as potential anti-angiogenic agents: A contemporary perspective of SAR and molecular docking studies” (Eur J Med Chem, 2023).
pEC50, pIC50: −log10 of the molar value. Values after ≈ are worked out from the molar mass of the structure shown. One block for each compound: values may come before it.

Assays:
HepG2 [1] = test: Antiproliferative activity against human HepG2 cells assessed as reduction in cell viability measured after 72 hrs by MTT assay; type: functional, cell-based; conditions: HepG2, 72 h
MCF7 [2] = test: Antiproliferative activity against human MCF7 cells assessed as reduction in cell viability measured after 72 hrs by MTT assay; type: functional, cell-based; conditions: MCF7, 72 h
[3] = target: T1, Vascular endothelial growth factor receptor 2 (Homo sapiens, UniProt P35968)
T1 sequence (P35968 whole entry): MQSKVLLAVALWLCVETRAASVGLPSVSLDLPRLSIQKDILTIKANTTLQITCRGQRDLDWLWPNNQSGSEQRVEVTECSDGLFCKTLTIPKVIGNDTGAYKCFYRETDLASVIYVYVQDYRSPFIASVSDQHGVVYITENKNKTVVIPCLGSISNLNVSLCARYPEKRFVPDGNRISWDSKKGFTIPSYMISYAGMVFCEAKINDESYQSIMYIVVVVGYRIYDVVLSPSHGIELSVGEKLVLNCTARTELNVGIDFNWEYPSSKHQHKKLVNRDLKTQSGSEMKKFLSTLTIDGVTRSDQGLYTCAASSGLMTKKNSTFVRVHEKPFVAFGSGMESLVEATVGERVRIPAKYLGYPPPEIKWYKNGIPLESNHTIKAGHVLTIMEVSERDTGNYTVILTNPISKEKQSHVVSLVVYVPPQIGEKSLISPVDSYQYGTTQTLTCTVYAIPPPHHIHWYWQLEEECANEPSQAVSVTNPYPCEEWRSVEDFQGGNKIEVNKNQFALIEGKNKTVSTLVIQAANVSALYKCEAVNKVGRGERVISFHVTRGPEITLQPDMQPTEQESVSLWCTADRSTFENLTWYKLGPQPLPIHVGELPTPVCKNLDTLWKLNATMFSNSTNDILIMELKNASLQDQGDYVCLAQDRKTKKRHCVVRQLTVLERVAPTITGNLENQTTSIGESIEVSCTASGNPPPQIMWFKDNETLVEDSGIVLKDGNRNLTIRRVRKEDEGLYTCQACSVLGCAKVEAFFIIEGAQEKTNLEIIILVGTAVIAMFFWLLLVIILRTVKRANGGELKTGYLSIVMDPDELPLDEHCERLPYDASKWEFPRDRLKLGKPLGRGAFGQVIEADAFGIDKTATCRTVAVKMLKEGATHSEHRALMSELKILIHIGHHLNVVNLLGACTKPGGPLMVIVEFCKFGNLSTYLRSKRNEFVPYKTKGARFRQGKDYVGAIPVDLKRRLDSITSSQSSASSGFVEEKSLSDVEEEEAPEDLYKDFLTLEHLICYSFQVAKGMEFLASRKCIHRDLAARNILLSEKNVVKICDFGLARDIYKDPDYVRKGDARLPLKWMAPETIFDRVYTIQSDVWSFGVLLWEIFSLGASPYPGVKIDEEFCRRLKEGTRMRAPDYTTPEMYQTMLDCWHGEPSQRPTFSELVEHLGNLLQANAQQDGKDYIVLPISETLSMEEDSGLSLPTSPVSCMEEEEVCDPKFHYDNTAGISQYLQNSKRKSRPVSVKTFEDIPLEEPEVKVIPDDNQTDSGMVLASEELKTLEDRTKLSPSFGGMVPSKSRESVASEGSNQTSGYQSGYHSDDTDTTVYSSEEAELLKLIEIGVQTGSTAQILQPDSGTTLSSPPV

HepG2 [4] = test: Growth inhibition of human HepG2 cells incubated for 24 hrs by MTT assay; type: functional
HCT-116 [5] = test: Growth inhibition of human HCT-116 cells incubated for 24 hrs by MTT assay; type: functional
MCF7 [6] = test: Growth inhibition of human MCF7 cells incubated for 24 hrs by MTT assay; type: functional
[7] = target: Serine/threonine-protein kinase B-raf (Homo sapiens, UniProt P15056); test: Inhibition of human recombinant B-Raf using […] as substrate incubated for 40 mins in presence of [gamma33P]ATP by scintillation counter based kinase assay
[8] = target: Serine/threonine-protein kinase B-raf (Homo sapiens, UniProt P15056, V600E); test: Inhibition of B-RAF V600E mutant (unknown origin) using […] as substrate incubated for 40 mins in presence of [gamma33P]ATP by scintillation counter based kinase assay
[9] = target: RAF proto-oncogene serine/threonine-protein kinase (Homo sapiens, UniProt P04049); test: Inhibition of human recombinant C-Raf using Glu-Tyr-Met-Pro-Met-Glu as substrate incubated for 60 mins by radiometric kinase assay
[10] = target: Epidermal growth factor receptor (Homo sapiens, UniProt P00533); test: Inhibition of human recombinant EGFR using poly(Glu-Tyr) as substrate at 4:1 ratio in presence of ATP incubated for 60 mins by ELISA analysis
[11] = target: T1, Vascular endothelial growth factor receptor 2; test: Inhibition of VEGFR-2 (unknown origin) kinase activity using poly(Glu-Tyr) at 4:1 ratio as substrate in presence of ATP incubated for 60 mins by ELISA
MCF7 [12] = test: Antiproliferative activity against human MCF7 cells assessed as reduction in cell viability measured after 48 hrs by MTT assay; type: functional, cell-based; conditions: MCF7, 48 h
HCT-116 [13] = test: Antiproliferative activity against human HCT-116 cells assessed as reduction in cell viability measured after 48 hrs by MTT assay; type: functional, cell-based; conditions: HCT-116, 48 h
A549 [14] = test: cells; conditions: Homo sapiens, A549, 48 h
MCF7 [15] = test: cells; conditions: Homo sapiens, MCF7, 48 h
NCI-H460 = test: cells; conditions: Homo sapiens, NCI-H460, 48 h
Macrophage = test: cells; conditions: Homo sapiens, 48 h
MHCC97H = test: Antiproliferative activity against human MHCC97H cells assessed as reduction in cell viability incubated for 48 hrs by CCK-8 assay; type: functional, cell-based
HUVEC [16] = test: Antiproliferative activity against HUVEC cells assessed as reduction in cell viability incubated for 48 hrs by CCK-8 assay; type: functional, cell-based; conditions: Homo sapiens
[17] = Half life in rat at 5 mg/kg, iv; type: ADME, organism-based; conditions: in vivo
[18] = Oral bioavailability in rat at 2.5 mg/kg; type: ADME, organism-based; conditions: in vivo
Calu-6 = test: Antitumor activity against human Calu-6 cells xenografted in athymic mouse assessed as inhibition of tumor growth at 100 mg/kg, po administered once daily for 21 days relative to control; type: functional; parameters: scale not given: the % may be the effect or the level left; conditions: time 21 day
HUVEC [19] = test: cells; conditions: Homo sapiens
HUVEC [20] = test: cells; conditions: Homo sapiens; remark: listed apart in the source
in vitro = conditions: human, HUVEC cells
[21] = Intrinsic clearance in human hepatocytes at 0.5 uM measured after 10 mins by LC-MS/MS analysis; type: ADME, cell-based, Hepatocyte
Angiopoietin-1 receptor = Angiopoietin-1 receptor (Homo sapiens, UniProt Q02763); test: Inhibition of TIE-2 (unknown origin)
Chain of Angiopoietin-1 receptor (Q02763 whole entry): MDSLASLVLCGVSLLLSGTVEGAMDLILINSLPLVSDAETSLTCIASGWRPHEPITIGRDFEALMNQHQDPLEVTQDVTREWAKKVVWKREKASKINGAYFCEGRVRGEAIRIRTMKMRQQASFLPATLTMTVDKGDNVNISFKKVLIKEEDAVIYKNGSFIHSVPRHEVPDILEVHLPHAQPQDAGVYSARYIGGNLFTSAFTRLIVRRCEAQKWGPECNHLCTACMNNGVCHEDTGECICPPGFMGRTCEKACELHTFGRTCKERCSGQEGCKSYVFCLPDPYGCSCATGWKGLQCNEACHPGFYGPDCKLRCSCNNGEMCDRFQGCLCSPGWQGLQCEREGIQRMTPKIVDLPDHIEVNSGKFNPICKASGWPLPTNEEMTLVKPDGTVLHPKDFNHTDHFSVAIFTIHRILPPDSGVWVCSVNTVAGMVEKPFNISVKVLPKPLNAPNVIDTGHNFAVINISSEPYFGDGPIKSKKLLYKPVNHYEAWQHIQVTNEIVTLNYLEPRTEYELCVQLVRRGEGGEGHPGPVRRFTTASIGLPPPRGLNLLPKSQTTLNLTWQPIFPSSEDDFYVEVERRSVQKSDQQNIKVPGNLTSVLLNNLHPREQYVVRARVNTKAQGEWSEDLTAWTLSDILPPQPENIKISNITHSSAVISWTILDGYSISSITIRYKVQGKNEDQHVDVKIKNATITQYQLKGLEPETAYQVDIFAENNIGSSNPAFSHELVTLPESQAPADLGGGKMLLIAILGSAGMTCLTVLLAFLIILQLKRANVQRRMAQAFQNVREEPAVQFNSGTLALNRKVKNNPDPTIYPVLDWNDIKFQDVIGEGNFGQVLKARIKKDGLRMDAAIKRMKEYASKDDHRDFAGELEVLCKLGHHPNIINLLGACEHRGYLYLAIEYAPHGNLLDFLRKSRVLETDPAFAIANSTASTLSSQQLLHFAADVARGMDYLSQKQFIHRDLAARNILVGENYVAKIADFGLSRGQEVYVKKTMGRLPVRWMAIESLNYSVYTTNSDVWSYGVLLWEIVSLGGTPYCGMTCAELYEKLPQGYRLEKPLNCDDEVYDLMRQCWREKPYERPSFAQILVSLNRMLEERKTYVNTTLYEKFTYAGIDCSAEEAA

Ephrin type-B receptor 4 = Ephrin type-B receptor 4 (Homo sapiens, UniProt P54760)
[22] = target: Platelet-derived growth factor receptor beta (Homo sapiens, UniProt P09619); test: Inhibition of human recombinant PDGFRbeta using poly (Glu, Tyr)4:1 as substrate measured after 60 mins by ELISA
Chain of Platelet-derived growth factor receptor beta (P09619 whole entry): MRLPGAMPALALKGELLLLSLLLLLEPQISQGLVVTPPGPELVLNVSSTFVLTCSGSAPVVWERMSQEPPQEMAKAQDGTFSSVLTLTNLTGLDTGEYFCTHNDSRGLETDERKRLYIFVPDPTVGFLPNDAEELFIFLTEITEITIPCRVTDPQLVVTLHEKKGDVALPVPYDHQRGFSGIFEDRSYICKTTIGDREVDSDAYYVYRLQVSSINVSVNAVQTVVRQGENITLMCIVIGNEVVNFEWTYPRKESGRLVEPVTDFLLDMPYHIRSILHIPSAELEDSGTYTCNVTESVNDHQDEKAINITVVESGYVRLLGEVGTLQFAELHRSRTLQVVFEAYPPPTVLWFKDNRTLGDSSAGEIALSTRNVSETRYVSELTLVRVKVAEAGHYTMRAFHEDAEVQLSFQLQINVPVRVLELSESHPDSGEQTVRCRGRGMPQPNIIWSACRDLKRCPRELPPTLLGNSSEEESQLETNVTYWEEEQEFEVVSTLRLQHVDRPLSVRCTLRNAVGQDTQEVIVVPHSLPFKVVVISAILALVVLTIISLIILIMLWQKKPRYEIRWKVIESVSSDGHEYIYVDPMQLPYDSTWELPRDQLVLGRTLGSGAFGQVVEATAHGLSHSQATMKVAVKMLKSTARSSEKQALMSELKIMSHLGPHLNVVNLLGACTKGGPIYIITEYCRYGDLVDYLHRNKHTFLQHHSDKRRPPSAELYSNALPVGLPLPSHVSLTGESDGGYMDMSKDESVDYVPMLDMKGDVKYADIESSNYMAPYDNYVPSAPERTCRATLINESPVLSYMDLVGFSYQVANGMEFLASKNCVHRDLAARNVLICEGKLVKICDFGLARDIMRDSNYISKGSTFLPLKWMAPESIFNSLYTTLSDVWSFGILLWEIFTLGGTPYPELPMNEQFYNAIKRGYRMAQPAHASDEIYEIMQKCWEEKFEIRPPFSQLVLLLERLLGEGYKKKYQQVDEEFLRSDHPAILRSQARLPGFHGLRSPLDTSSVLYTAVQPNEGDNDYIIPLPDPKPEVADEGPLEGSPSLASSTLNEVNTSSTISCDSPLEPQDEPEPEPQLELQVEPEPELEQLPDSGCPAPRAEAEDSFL

B16 = test: Antiproliferative activity against mouse B16 cells assessed as reduction in cell viability incubated for 48 hrs by MTT assay; type: functional, cell-based; conditions: B16, 48 h
HepG2 [23] = test: Cytotoxicity against human HepG2 cells assessed as cell growth inhibition; type: functional, cell-based
HCT-116 [24] = test: Cytotoxicity against human HCT-116 cells assessed as cell growth inhibition; type: functional, cell-based
WISH = test: Cytotoxicity against human WISH cells assessed as cell growth inhibition; type: functional, cell-based
HCT-116 [25] = test: cells; conditions: Homo sapiens, HCT-116, 48 h
MCF7 [26] = test: cells; conditions: Homo sapiens, MCF7, 48 h; remark: listed apart in the source
HEK293 = test: Cytotoxicity against HEK293 cells assessed as cell growth inhibition measured after 48 hrs by CCK-8 assay; type: functional, cell-based; conditions: Homo sapiens, HEK293, 48 h
L02 = test: Cytotoxicity against human L02 cells assessed as cell growth inhibition measured after 48 hrs by CCK-8 assay; type: functional, cell-based; conditions: L02, 48 h
[27] = target: T2, Vascular endothelial growth factor receptor 1 (Homo sapiens, UniProt P17948); test: Inhibition of VEGFR-1 (unknown origin) by HTRF method
T2 sequence (P17948 whole entry): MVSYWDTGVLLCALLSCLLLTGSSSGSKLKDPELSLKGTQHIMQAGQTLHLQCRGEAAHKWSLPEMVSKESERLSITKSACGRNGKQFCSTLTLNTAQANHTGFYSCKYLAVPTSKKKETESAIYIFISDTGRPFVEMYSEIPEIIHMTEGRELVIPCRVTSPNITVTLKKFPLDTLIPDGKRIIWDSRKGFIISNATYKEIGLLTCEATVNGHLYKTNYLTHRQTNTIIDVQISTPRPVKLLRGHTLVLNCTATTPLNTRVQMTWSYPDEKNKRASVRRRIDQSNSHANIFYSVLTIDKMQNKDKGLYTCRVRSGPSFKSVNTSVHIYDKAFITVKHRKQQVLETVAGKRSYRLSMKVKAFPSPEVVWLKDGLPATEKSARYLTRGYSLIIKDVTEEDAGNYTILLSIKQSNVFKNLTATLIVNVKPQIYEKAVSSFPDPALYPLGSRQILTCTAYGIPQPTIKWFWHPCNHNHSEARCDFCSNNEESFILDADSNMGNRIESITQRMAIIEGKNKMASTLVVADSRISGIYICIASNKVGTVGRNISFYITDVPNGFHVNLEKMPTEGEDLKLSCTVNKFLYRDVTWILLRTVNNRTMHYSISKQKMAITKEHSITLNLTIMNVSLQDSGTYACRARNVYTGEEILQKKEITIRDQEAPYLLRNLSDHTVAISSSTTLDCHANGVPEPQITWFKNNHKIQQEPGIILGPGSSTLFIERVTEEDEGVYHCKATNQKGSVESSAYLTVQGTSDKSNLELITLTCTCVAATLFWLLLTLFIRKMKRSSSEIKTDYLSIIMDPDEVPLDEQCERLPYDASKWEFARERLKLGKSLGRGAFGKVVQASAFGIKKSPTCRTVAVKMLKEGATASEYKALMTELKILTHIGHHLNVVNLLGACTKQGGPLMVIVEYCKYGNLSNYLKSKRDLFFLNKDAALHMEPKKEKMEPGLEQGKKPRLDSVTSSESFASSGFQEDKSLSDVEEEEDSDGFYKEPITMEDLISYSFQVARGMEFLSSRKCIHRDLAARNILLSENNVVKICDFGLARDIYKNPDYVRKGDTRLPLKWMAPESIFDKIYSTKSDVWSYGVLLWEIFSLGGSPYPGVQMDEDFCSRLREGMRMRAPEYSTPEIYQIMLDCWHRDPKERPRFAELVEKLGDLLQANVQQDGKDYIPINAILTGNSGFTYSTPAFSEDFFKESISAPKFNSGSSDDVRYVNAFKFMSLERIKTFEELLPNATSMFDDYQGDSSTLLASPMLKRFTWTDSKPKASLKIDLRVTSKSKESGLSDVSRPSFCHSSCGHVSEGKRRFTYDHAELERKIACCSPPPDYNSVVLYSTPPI

[28] = target: T2, Vascular endothelial growth factor receptor 1; test: Inhibition of VEGFR-1 (unknown origin) at 10 uM relative to control
[29] = target: T1, Vascular endothelial growth factor receptor 2; test: Inhibition of human VEGFR-2 using biotinylated synthetic peptide biotin-aminohexyl-EEEEYFELVAKKKK-NH2 as substrate pre-incubated for 30 mins and measured after 30 mins by FRET assay
HUVEC [30] = test: Antiproliferative activity against VEGF-stimulated HUVEC cells assessed as cell growth inhibition measured after 24 hrs by BrdUrd incorporation based spectrophotometric analysis; type: functional; conditions: Homo sapiens
[31] = target: T1, Vascular endothelial growth factor receptor 2; remark: listed apart in the source
MCF7 [32] = test: Induction of cell cycle arrest in human MCF7 cells assessed as reduction in accumulation of cells in G2/M phase at 10 uM incubated for 24 hrs by PI staining based flow cytometry analysis relative to control; type: functional; parameters: scale not given: the % may be the effect or the level left
MCF7 [33] = test: Cytotoxicity against human MCF7 cells assessed as reduction in cell growth incubated for 24 hrs by MTT assay; type: functional, cell-based; conditions: MCF7, 24 h
A549 [34] = test: Antitumor activity against human A549 cells assessed as reduction in cell viability incubated for 48 hrs by CCK-8 assay; type: functional, cell-based; conditions: A549, 48 h
HT-29 = test: Antitumor activity against human HT-29 cells assessed as reduction in cell viability incubated for 48 hrs by CCK-8 assay; type: functional, cell-based; conditions: HT-29, 48 h
MCF7 [35] = test: Antitumor activity against human MCF7 cells assessed as reduction in cell viability incubated for 48 hrs by CCK-8 assay; type: functional, cell-based; conditions: MCF7, 48 h

pIC50 (HepG2 [1]): 4.59
pIC50 (MCF7 [2]): 5.03
Compound: CCn1c(SCCCN2C(=O)c3ccccc3C2=O)nc2cc3ccccc3cc2c1=O

pIC50 [3]: 6.92
GI50 (HepG2 [4]): 9.16 µM
GI50 (HCT-116 [5]): 5.69 µM
GI50 (MCF7 [6]): 5.27 µM
Compound: O=C(Cn1c(=O)c2ccccc2n(Cc2ccccc2)c1=O)Nc1ccc(C(=O)N/N=C/c2ccc(Cl)cc2)cc1

pIC50 [7]: 7.24
pIC50 [8]: 7.29
pIC50 [9]: 6.00
pIC50 [10]: 7.14
pIC50 [11]: 8.15
Compound: NC(=O)CCn1cc(-c2ccc3ncnc(Nc4cc(O)c(F)cc4F)c3c2)nn1

pIC50 (MCF7 [12]): 5.02
pIC50 (HCT-116 [13]): 5.80
Compound: O=C(CSc1nc2ccc(Cl)cc2c(=O)n1-c1ccccc1)N/N=C/c1cccc(F)c1

pIC50 (A549 [14]): 6.24
pIC50 (MCF7 [15]): 6.46
pIC50 (NCI-H460): 6.41
Compound: COc1ccc(Cc2nnc(COc3ncnc4ccccc34)o2)cc1OC
pIC50 (Macrophage): 3.54

Compound: COc1cc2nccc(Oc3ccc(NC(=O)C4(C(=O)Nc5ccc(F)cc5)CC4)cc3)c2cc1OC [CABOZANTINIB]
IC50 (MHCC97H): 25 µg/mL (≈ 49.8 µM)
IC50 (HUVEC [16]): 2.7 µg/mL (≈ 5.38 µM)

half-life [17]: 498 min
bioavailability [18]: > 50%
pEC50 (in vitro): < 5.52
Compound: COc1cc2/c(=N/c3ccc(Br)cc3F)nc[nH]c2cc1OCC1CCN(C)CC1 [VANDETANIB]
Activity (Calu-6): 79%
pEC50 (HUVEC [19]): 7.22
pEC50 (HUVEC [20]): 8.00

CLH [21]: 91.9 µL/min
Compound: COc1cc2ncnc(Nc3cc(O)c(C)cc3F)c2cc1OC

Compound: O=C(Nc1ccc(-c2ccc3c(=O)[nH]cnc3c2)cc1)Nc1ccc(F)c(F)c1
pIC50 (Angiopoietin-1 receptor): 5.05
pIC50 (Ephrin type-B receptor 4): 5.49
pIC50 [22]: 4.01

pIC50 (B16): 5.03
pIC50 (HCT-116 [25]): 4.98
pIC50 (MCF7 [26]): 4.75
Compound: CNC(=O)c1cc(Oc2ccc(NC(=O)Nc3ccc(Cl)c(C(F)(F)F)c3)cc2)ccn1 [SORAFENIB]
pIC50 (HepG2 [23]): 4.71
pIC50 (HCT-116 [24]): 5.17
pIC50 (WISH): 4.76

Compound: COc1cc2ncnc(Oc3ccc(NC(=O)C4(C(=O)Nc5ccc(F)cc5)CC4)cc3F)c2c2c1OCCO2
IC50 (MHCC97H): 58.6 µg/mL (≈ 107 µM)
IC50 (HUVEC [16]): 3.7 µg/mL (≈ 6.75 µM)
IC50 (HEK293): 15.1 µg/mL (≈ 27.5 µM)
IC50 (L02): 12.6 µg/mL (≈ 23 µM)

Compound: COCCOc1cc2ncnc(Oc3ccc(NC(=O)C4(C(=O)Nc5ccc(F)cc5)CC4)cc3F)c2c2c1OCCO2
IC50 (MHCC97H): 15.1 µg/mL (≈ 25.5 µM)
IC50 (HUVEC [16]): 12.6 µg/mL (≈ 21.3 µM)
IC50 (HEK293): 11.9 µg/mL (≈ 20.1 µM)
IC50 (L02): 12.2 µg/mL (≈ 20.6 µM)

pIC50 [27]: 7.77
inhibition [28]: 91%
Compound: COc1cc2ncnc(Nc3ccc(-c4noc(Cc5cc6ccccc6[nH]5)n4)cc3)c2cc1OC

pIC50 [29]: 8.42
Compound: COc1cc2nc(-c3ccccc3)n(-c3nnc(-c4ccc(Cl)cc4)s3)c(=O)c2cc1OC
pIC50 (HUVEC [30]): 8.26

pIC50 [31]: 6.19
Compound: NS(=O)(=O)c1ccc(-n2c(SCC(=O)N/N=C/c3ccc(Cl)cc3Cl)nc3cc4ccccc4cc3c2=O)cc1
Activity (MCF7 [32]): 24.17%
pIC50 (MCF7 [33]): 7.00

pIC50 (A549 [34]): 5.75
pIC50 (HT-29): 6.09
pIC50 (MCF7 [35]): 5.60
Compound: Cc1ccc(Nc2ncnc3cc(NC(=O)Nc4ccc(Cl)c(C(F)(F)F)c4)ccc23)cc1
